Results from patent US20020052504A1, “PIPERIDINE DERIVATIVES AND THEIR USE AS TACHYKININ ANTAGONISTS” (priority 1997, published 2002).
Structures can show the parent of a compound that is named as a salt.

Molecular target: human NK1 receptor (Homo sapiens, UniProt P25103)
Test: NK1 receptor test by the methods of WO 93/01165 (pages 36 to 39)
Format: binding
Protocol: The exemplified compounds of this invention were tested by the methods set out at pages 36 to 39 of International Patent Specification No. WO 93/01165.

Chain of human NK1 receptor (P25103 whole entry): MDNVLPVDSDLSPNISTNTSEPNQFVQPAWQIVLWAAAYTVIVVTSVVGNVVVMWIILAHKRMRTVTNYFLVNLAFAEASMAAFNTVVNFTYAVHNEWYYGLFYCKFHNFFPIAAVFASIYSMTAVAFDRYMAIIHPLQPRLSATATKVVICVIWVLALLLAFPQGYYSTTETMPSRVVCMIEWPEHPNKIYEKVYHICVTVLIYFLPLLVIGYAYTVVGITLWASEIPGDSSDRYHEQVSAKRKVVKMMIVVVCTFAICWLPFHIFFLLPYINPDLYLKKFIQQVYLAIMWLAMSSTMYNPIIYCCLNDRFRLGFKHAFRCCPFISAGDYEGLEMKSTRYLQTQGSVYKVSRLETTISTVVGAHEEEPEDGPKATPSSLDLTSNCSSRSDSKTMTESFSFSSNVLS

Row | IC50 | SMILES
1 | 0.08 nM | FC(F)(F)c1nnnn1-c1ccc(OC2CC2)c(CN[C@H]2CCCN[C@H]2c2ccccc2)c1 [Example 1, (2 S3 S)-N-({2-Cyclopropoxy-5-[5-(trifluoromethyl)tetrazol-1-yl]phenyl}methyl)-2-phenylpiperidin-3-amine Dihydrochloride]
2 | 0.13 nM | Fc1ccc(C2NCCCC2NCc2cc(-n3nnnc3C(F)(F)F)ccc2OC2CC2)cc1 (racemic) [Example 2, (±)-(2 R3 R 2 S3 S)-N-({2-Cyclopropoxy-5-[5-(trifluoromethyl)tetrazol-1-yl]phenyl}methyl)-2-(4-fluorophenyl)piperidin-3-amine Dihydrochloride]
